Test results taken from PubChem BioAssay (NCI).
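GI50 is the concentration that inhibits growth by half. TGI denotes the concentration required for complete inhibition of growth.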

What was measured:
Assay in all cases: NCI-60 cell line screen, 384-well format
HCT-116 colon = test system: HCT-116 colon
HL-60(TB) leukemia = test system: HL-60(TB) leukemia
HCC-2998 colon = test system: HCC-2998 colon
OVCAR-3 ovarian = test system: OVCAR-3 ovarian
A549 NSCLC = test system: A549 NSCLC
BT-549 breast = test system: BT-549 breast
NCI-H522 lung = test system: NCI-H522 lung
UACC-257 melanoma = test system: UACC-257 melanoma
IGROV1 ovarian = test system: IGROV1 ovarian
LOX IMVI melanoma = test system: LOX IMVI melanoma
HCT-15 colon = test system: HCT-15 colon
OVCAR-8 ovarian = test system: OVCAR-8 ovarian
SK-OV-3 ovarian = test system: SK-OV-3 ovarian
SK-MEL-28 melanoma = test system: SK-MEL-28 melanoma
SF-539 CNS = test system: SF-539 CNS
SK-MEL-5 melanoma = test system: SK-MEL-5 melanoma
RXF 393 renal = test system: RXF 393 renal
T-47D breast = test system: T-47D breast
HT29 colon = test system: HT29 colon
PC-3 prostate = test system: PC-3 prostate
K-562 leukemia = test system: K-562 leukemia
NCI-H23 lung = test system: NCI-H23 lung
COLO 205 colon = test system: COLO 205 colon
U251 glioblastoma = test system: U251 glioblastoma
A498 renal = test system: A498 renal
SW-620 colon = test system: SW-620 colon
MDA-MB-231 breast = test system: MDA-MB-231 breast
MCF7 breast = test system: MCF7 breast
NCI/ADR-RES ovarian = test system: NCI/ADR-RES ovarian
M14 melanoma = test system: M14 melanoma
CCRF-CEM leukemia = test system: CCRF-CEM leukemia
MALME-3M melanoma = test system: MALME-3M melanoma
SNB-19 CNS = test system: SNB-19 CNS
SK-MEL-2 melanoma = test system: SK-MEL-2 melanoma
CAKI-1 renal = test system: CAKI-1 renal
OVCAR-4 ovarian = test system: OVCAR-4 ovarian
ACHN renal = test system: ACHN renal
HOP-92 NSCLC = test system: HOP-92 NSCLC
OVCAR-5 ovarian = test system: OVCAR-5 ovarian
MDA-MB-435 melanoma = test system: MDA-MB-435 melanoma
NCI-H460 NSCLC = test system: NCI-H460 NSCLC
SR leukemia = test system: SR leukemia
HOP-62 NSCLC = test system: HOP-62 NSCLC
NCI-H226 lung = test system: NCI-H226 lung
MDA-MB-468 breast = test system: MDA-MB-468 breast
NCI-H322M lung = test system: NCI-H322M lung
786-0 renal = test system: 786-0 renal
TK-10 renal = test system: TK-10 renal
SF-268 CNS = test system: SF-268 CNS
SN12C renal = test system: SN12C renal
RPMI-8226 leukemia = test system: RPMI-8226 leukemia
KM12 colon = test system: KM12 colon
SF-295 CNS = test system: SF-295 CNS
DU-145 prostate = test system: DU-145 prostate
MOLT-4 leukemia = test system: MOLT-4 leukemia
UACC-62 melanoma = test system: UACC-62 melanoma

**Q.** Which results are given for `Cc1c(CN2CCC(Nc3ncnc4sc(CC(F)(F)F)cc34)CC2)ccc2c1cc(C#N)n2Cc1cn[nH]c1`?
**A.** GI50 (HCT-116 colon): 0.417 µM; TGI (HCT-116 colon): 1.61 µM; GI50 (HL-60(TB) leukemia): 0.627 µM; TGI (HL-60(TB) leukemia): 1.68 µM; GI50 (HCC-2998 colon): 0.391 µM; TGI (HCC-2998 colon): 1.35 µM; GI50 (OVCAR-3 ovarian): 1.23 µM; TGI (OVCAR-3 ovarian): 2.48 µM; GI50 (A549 NSCLC): 1.35 µM; TGI (A549 NSCLC): 2.67 µM; GI50 (BT-549 breast): 0.901 µM; TGI (BT-549 breast): 2.12 µM; GI50 (NCI-H522 lung): 1.39 µM; TGI (NCI-H522 lung): 2.68 µM; GI50 (UACC-257 melanoma): 0.772 µM; TGI (UACC-257 melanoma): 2.06 µM; GI50 (IGROV1 ovarian): 1.35 µM; TGI (IGROV1 ovarian): 3.4 µM; GI50 (LOX IMVI melanoma): 2.06 µM; TGI (LOX IMVI melanoma): 3.49 µM; GI50 (HCT-15 colon): 1.23 µM; TGI (HCT-15 colon): 2.49 µM; GI50 (OVCAR-8 ovarian): 1.5 µM; TGI (OVCAR-8 ovarian): 2.84 µM; GI50 (SK-OV-3 ovarian): 1.33 µM; TGI (SK-OV-3 ovarian): 2.61 µM; GI50 (SK-MEL-28 melanoma): 1.85 µM; TGI (SK-MEL-28 melanoma): 3.26 µM; GI50 (SF-539 CNS): 1.33 µM; TGI (SF-539 CNS): 2.62 µM; GI50 (SK-MEL-5 melanoma): 0.402 µM; TGI (SK-MEL-5 melanoma): 1.54 µM; GI50 (RXF 393 renal): 0.219 µM; TGI (RXF 393 renal): 0.709 µM; GI50 (T-47D breast): 0.247 µM; TGI (T-47D breast): 1.44 µM; GI50 (HT29 colon): 0.318 µM; TGI (HT29 colon): 1.27 µM; GI50 (PC-3 prostate): 1.3 µM; TGI (PC-3 prostate): 2.58 µM; GI50 (K-562 leukemia): 0.295 µM; TGI (K-562 leukemia): 1.11 µM; GI50 (NCI-H23 lung): 0.275 µM; TGI (NCI-H23 lung): 1.42 µM; GI50 (COLO 205 colon): 1.42 µM; TGI (COLO 205 colon): 2.74 µM; GI50 (U251 glioblastoma): 0.73 µM; TGI (U251 glioblastoma): 2 µM; GI50 (A498 renal): 1.15 µM; TGI (A498 renal): 2.37 µM; GI50 (SW-620 colon): 1.31 µM; TGI (SW-620 colon): 2.6 µM; GI50 (MDA-MB-231 breast): 1.36 µM; TGI (MDA-MB-231 breast): 2.65 µM; GI50 (MCF7 breast): 1.02 µM; TGI (MCF7 breast): 2.19 µM; GI50 (NCI/ADR-RES ovarian): 1.58 µM; TGI (NCI/ADR-RES ovarian): 2.94 µM; GI50 (M14 melanoma): 1.62 µM; TGI (M14 melanoma): 2.98 µM; GI50 (CCRF-CEM leukemia): 0.668 µM; TGI (CCRF-CEM leukemia): 1.96 µM; GI50 (MALME-3M melanoma): 1.36 µM; TGI (MALME-3M melanoma): 2.65 µM; GI50 (SNB-19 CNS): 1.67 µM; TGI (SNB-19 CNS): 3.04 µM; GI50 (SK-MEL-2 melanoma): 1.33 µM; TGI (SK-MEL-2 melanoma): 2.6 µM; GI50 (CAKI-1 renal): 1.42 µM; TGI (CAKI-1 renal): 2.73 µM; GI50 (OVCAR-4 ovarian): 0.93 µM; TGI (OVCAR-4 ovarian): 2.14 µM; GI50 (ACHN renal): 1.39 µM; TGI (ACHN renal): 2.69 µM; GI50 (HOP-92 NSCLC): 1.33 µM; TGI (HOP-92 NSCLC): 2.61 µM; GI50 (OVCAR-5 ovarian): 1.73 µM; TGI (OVCAR-5 ovarian): 3.12 µM; GI50 (MDA-MB-435 melanoma): 1.86 µM; TGI (MDA-MB-435 melanoma): 3.27 µM; GI50 (NCI-H460 NSCLC): 0.409 µM; TGI (NCI-H460 NSCLC): 1.63 µM; GI50 (SR leukemia): 0.137 µM; TGI (SR leukemia): 0.279 µM; GI50 (HOP-62 NSCLC): 1.16 µM; TGI (HOP-62 NSCLC): 2.39 µM; GI50 (NCI-H226 lung): 1.3 µM; TGI (NCI-H226 lung): 2.61 µM; GI50 (MDA-MB-468 breast): 0.327 µM; TGI (MDA-MB-468 breast): 1.13 µM; GI50 (NCI-H322M lung): 0.954 µM; TGI (NCI-H322M lung): 2.15 µM; GI50 ([…]-0 renal): 1.16 µM; TGI (786-0 renal): 2.39 µM; GI50 (TK-10 renal): 1.33 µM; TGI (TK-10 renal): 2.62 µM; GI50 (SF-268 CNS): 1.31 µM; TGI (SF-268 CNS): 2.59 µM; GI50 (SN12C renal): 1.3 µM; TGI (SN12C renal): 2.58 µM; GI50 (RPMI-8226 leukemia): 0.107 µM; TGI (RPMI-8226 leukemia): 0.77 µM; GI50 (KM12 colon): 1.28 µM; TGI (KM12 colon): 2.56 µM; GI50 (SF-295 CNS): 1.42 µM; TGI (SF-295 CNS): 2.73 µM; GI50 (DU-145 prostate): 1.7 µM; TGI (DU-145 prostate): 3.09 µM; GI50 (MOLT-4 leukemia): 0.486 µM; TGI (MOLT-4 leukemia): 1.69 µM; GI50 (UACC-62 melanoma): 1.65 µM; TGI (UACC-62 melanoma): 3.02 µM
